Measurements as given in patent US9399145B2, “Nanoscale neuromodulating platform for retina neuron activation apparatus and method” (The Board of Trustees of the University of Illinois, priority 2005, dated 2016).

Assays:
[1] = system: GABAARs of cerebellar PNs; experiment: Test for direct agonist activity on Purkinje neurons (recirculating MPC088, no exogenous GABA); assay type: cell-based, mouse
Experimental: To test for direct agonist activity of MPC088 on PNs, cerebellar slices were perfused with recirculating 30 μM MPC088 (the maximal MPC088 concentration that could be reliably maintained solubilized in bicarbonate-buffered solution). MPC088 was converted to cis-dominant form by a 2-min exposure to UV light (LED, 365 nm/160 mW, Mouser, Inc., Mansfield, Tex.; LED driver, 700 mA BuckPuck DC Driver, Quadica Developments, Inc., Brantford, Ontario, Canada), before its dilution into the recirculating external solution. The same LED was then used to continuously UV-illuminate the recirculating solution for the duration of the experiment. Whole-cell voltage clamp recordings were obtained from PNs and determined the change in membrane current produced by alternating blue and UV illumination of the slice, as in the FIG. 40 experiments. […] The temporal sequence of illumination differed among the experiments (e.g., only the cell in a received multiple blue/UV exposures), but the data plotted are the amplitudes from the blue to UV transition (in the case of the cell in a, this is the blue/UV transition from the first of the three exposures). Yellow-filled data points indicate results from the experiment in a. Each data point is the average obtained from 4-10 consecutive recordings. […] Error bars represent the SEM (FIG. 42b).

[2] = biological target: T1, α4β3δ GABAAR (Homo sapiens, UniProt P28472+P48169); experiment: Two-electrode voltage clamp of α4β3δ GABAAR-expressing oocytes; assay type: cell-based
T1 construct: expressed in transfected cells; host or cells: Xenopus oocytes
T1 sequence (P48169 36-554): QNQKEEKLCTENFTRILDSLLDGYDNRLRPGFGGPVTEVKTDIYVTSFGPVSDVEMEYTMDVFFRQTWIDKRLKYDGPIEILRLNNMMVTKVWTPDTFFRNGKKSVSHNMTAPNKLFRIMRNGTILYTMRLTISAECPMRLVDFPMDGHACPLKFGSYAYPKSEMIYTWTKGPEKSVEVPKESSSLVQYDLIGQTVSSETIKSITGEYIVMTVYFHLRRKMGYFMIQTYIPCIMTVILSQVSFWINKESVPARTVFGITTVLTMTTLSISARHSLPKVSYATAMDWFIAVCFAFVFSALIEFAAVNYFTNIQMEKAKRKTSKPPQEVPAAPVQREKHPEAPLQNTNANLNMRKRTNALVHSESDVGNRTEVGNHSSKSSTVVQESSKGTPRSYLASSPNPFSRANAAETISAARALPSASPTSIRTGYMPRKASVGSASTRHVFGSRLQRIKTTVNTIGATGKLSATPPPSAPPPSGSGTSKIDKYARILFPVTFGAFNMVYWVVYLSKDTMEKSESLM
T1 sequence (P28472 26-473): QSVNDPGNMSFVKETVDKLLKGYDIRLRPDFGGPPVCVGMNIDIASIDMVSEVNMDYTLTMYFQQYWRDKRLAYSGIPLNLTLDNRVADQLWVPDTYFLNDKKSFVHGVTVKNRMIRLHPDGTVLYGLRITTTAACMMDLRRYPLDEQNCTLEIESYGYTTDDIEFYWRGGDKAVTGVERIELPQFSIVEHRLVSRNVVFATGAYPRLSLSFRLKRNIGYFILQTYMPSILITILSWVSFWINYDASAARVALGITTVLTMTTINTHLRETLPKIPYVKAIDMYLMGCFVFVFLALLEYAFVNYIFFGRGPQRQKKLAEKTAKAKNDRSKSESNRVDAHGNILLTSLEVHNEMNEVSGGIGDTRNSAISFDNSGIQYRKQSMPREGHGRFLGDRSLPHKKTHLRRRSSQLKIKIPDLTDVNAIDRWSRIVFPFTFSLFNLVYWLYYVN
T1 sequence (O14764 25-452 partner): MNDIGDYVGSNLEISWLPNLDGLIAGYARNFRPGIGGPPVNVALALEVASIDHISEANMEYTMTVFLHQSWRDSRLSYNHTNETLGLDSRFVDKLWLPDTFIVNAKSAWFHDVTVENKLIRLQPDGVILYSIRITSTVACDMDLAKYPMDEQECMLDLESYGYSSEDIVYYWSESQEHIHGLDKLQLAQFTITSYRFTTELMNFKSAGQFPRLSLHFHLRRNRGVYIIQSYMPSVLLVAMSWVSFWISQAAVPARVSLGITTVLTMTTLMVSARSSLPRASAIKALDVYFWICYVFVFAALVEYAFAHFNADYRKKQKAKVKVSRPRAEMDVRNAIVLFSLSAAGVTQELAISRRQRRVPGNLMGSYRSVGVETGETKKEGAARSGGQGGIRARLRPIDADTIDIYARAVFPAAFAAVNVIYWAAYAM
Source text: Propofol is known to modulate GABAA receptors that contain a β subunit. […] Data in each group was obtained from 4 oocytes.

[3] = biological target: T2, GABAAR subtype that consists of a pentameric assembly of p1 subunits (Homo sapiens, UniProt P24046); experiment: Oocytes expressing the GABAAR subtype of p1 subunits; assay type: cell-based
T2 construct: expressed in transfected cells; host or cells: Xenopus oocytes
T2 sequence (P24046 22-479): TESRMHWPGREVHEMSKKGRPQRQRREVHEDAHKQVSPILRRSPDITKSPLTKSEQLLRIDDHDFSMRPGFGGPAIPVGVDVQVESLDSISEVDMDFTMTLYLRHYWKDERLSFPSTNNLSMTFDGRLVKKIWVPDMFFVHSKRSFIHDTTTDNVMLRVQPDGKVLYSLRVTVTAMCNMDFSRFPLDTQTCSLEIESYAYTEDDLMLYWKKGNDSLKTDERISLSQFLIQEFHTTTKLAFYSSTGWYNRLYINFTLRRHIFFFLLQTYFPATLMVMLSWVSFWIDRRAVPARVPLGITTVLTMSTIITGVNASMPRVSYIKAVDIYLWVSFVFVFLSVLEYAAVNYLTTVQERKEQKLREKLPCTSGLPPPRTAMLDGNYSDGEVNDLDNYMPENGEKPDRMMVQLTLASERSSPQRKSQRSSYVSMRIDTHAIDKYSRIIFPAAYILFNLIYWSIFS

[4] = Hydrophobicity (log P); assay type: physicochemical
[5] = system: GABAARs of retinal ganglion cells; experiment: Whole-cell patch clamp of isolated retinal ganglion cells; assay type: cell-based, rat; conditions: for peak amplitude of direct response relative to response to 200 μM GABA: alone
Experimental: To test whether native neuronal GABAARs respond to MPC088, retinal ganglion cells (RGCs), a cell type known to abundantly express GABAARs (Ishida et al. (1988); Fischer et al. (1998); Wässle et al. (1998); Rotolo et al. (2003)), were examined. […] The cis-dominant preparation was obtained by pre-treating trans-dominant MPC088 with UV light for 5 min.
Inset: Aggregate data for direct activation by MPC088.
Experiments were conducted on enzymatically dissociated ganglion cells obtained from adult Sprague-Dawley rats (male and female, 6-16 weeks of age) (Charles River Laboratories, Wilmington, Mass.). Procedures for euthanasia, isolation of the retina, and the dissociation of retinal cells were as described previously (Ramsey et al. (2007) except that the period of retinal cell dissociation was shortened from 40 min to 20 min. Isolated ganglion cells were identified on the basis of their morphological appearance and the presence of a large voltage-gated sodium current. Whole-cell patch-clamp techniques similar to those described (Ramsey et al. (2007)) were used to record membrane current responses to test agents. The patch pipette with a resistance of 8-12 MΩ was pulled in two stages using a micro-electrode puller (Model PP830, Narishige Group, Tokyo, Japan). The pipette was filled with an intracellular solution containing 95 mM CsCH3SO3, 20 mM TEA-Cl, 10 mM glutamic acid, 1 mM BAPTA, 10 mM HEPES, 8 mM phosphocreatine di(tris), 1 mM MgATP and 0.2 mM Na2GTP; pH adjusted to 7.2 with CsOH. Cells were clamped at 0 mV (Axopatch 200B amplifier; Axon Instruments), and experimental runs were controlled by pCLAMP system software (Axon Instruments). Electrophysiological data were obtained in response to test compounds dissolved in physiological saline (Ringer solution) that consisted of 135 mM NaCl, 5 mM KCl, 2 mM CaCl2, 2 mM MgCl2, 10 mM glucose, and 5 mM HEPES, pH 7.4. Supplementation of aqueous test solutions with MPC088 was carried out by adding an aliquot of a stock solution containing the compound dissolved in dimethyl sulfoxide (DMSO). In all experiments, the amount of carrier DMSO present in the applied test solution was <1% (v/v). Test solutions were delivered from separate reservoirs by a multi-channel perfusion system. The same UV-LED used in the oocyte experiments was used for UV illumination of MPC088-supplemented test solutions. For preparation of cis-dominant MPC088, the test solution of initially trans-dominant compound underwent a 5-min UV illumination prior to its placement in the perfusion reservoir. All preparative procedures were performed in the dark, and the reservoirs and perfusion lines were light-protected with aluminum foil. As in the oocyte experiments, data were analyzed with Clampfit and plotted with Origin. Unless otherwise stated, numerical data from replicate experiments are presented as mean±SD, and all statistical analyses of data obtained from oocytes and from retinal ganglion cells employed a two-sample t-test.

- plateau of response function relative to response with high GABA concentration ([2]; co-applied 50 nM GABA (~EC8)): ~42%
- logP [4]: > 6
SMILES: CC(C)c1cc(CCCC(=O)NCc2ccc(/N=N/c3ccc(C(=O)NCCN)cc3)cc2)cc(C(C)C)c1O [MPC088, (E)-N-(2-Aminoethyl)-4-((4-((4-(4-hydroxy-3,5-diisopropylphenyl)butanamido)methyl)phenyl)diazenyl)benzamide]
- average light-evoked current change ([1]; 30 μM recirculating, blue/UV illumination, subset of 28 of 44 cells with change >18 pA): 80±13 pA
- mode of action in cerebellar tissue ([1]; concentrations comparable to or lower than 30 μM): modulatory (endogenous GABA-dependent) rather than agonistic
- direct agonist activity ([2]; compound alone): much lower than those at α1β3γ2 and α1β2γ2
- potentiating and direct agonist activity [3]: lacked both potentiating and direct agonist activity
- potentiation of the response elicited by 2 μM GABA ([5]; 10 μM trans-dominant): approximately 5 fold
- peak amplitude of direct response relative to response to 200 μM GABA ([5]; 30 μM trans-dominant): 5%
- peak amplitude of direct response relative to response to 200 μM GABA ([5]; 60 μM trans-dominant): 43±9%
- reduction of agonist activity by UV pre-treatment ([5]; 60 μM, UV pre-treated (cis-dominant) vs trans-dominant): 88±6%
